Measured values taken from ChEMBL document CHEMBL4428102, “Discovery of an Orally Bioavailable Gonadotropin-Releasing Hormone Receptor Antagonist” (J Med Chem, 2016).
Calls of active or inactive are those of the source. The rule behind the calls is not given here.

Experiments:
[1] = Selectivity index, ratio of IC50 for antagonist activity against monkey GnRH receptor expressed in HEK293 cells to IC50 for antagonist activity against human GnRH receptor expressed in HEK293 cells; assay type: cell-based
[2] = Selectivity index, ratio of IC50 for antagonist activity against rat GnRH receptor expressed in HEK293 cells to IC50 for antagonist activity against human GnRH receptor expressed in HEK293 cells; assay type: cell-based
Cynomolgus monkey [3] = assay: Reduction in serum LH level in castrated male cynomolgus monkey at 30 mg/kg, po administered as single dose after 12 to 24 hrs by RIA method; assay type: functional, organism-based; settings: Macaca fascicularis
[4] = target: T1, Gonadotropin-releasing hormone receptor (Homo sapiens, UniProt P30968); assay: Displacement of [125I]D-Trp6-LHRH from human GnRH receptor expressed in CHO-K1 cell membranes incubated for 1 hr by competitive binding assay
T1 sequence (P30968 whole entry): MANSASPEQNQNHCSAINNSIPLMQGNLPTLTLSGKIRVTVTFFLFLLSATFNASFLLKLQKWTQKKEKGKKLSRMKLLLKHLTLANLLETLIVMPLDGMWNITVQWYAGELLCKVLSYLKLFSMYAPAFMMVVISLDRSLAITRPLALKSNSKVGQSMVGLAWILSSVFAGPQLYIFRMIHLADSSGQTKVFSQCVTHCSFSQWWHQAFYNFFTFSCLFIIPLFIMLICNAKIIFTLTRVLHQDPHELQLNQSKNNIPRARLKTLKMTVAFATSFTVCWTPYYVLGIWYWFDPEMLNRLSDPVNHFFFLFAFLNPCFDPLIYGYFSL

[5] = target: T1, Gonadotropin-releasing hormone receptor; assay: Antagonist activity against human GnRH receptor expressed in HEK293 cells co-transfected with pGL4-NFAT promoter AP1-luc assessed as inhibition of 20 nM GnRH-induced NFAT activation pre-incubated for 1 hr before GnRH stimulation and measured after 6 hrs by luciferase reporter gene assay; assay type: cell-based
CYP3A4 = CYP3A4 (Homo sapiens, UniProt P08684); assay: Inhibition of human recombinant CYP3A4 expressed in baculosomes at 10 uM incubated for 30 mins using BOMR substrate by fluorescence based assay; assay type: ADME; settings: probe BOMR
Chain of CYP3A4 (P08684 whole entry): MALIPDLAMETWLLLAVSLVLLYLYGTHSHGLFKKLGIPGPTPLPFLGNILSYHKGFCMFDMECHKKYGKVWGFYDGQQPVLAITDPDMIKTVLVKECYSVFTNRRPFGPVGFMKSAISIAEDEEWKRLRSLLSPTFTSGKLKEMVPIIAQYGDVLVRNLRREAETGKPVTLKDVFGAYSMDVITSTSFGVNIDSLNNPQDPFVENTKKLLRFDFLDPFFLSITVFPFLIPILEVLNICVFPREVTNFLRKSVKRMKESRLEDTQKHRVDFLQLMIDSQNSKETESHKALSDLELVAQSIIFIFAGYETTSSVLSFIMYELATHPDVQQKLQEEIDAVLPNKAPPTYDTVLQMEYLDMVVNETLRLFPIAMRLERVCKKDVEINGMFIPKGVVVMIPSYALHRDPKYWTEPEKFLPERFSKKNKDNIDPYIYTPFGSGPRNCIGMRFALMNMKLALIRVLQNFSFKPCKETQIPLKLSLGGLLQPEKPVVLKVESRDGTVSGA

[6] = AUC (infinity) in beagle dog at 10 mg/kg, po by mass spectrometry; assay type: ADME, organism-based, Canis lupus familiaris; parameters: dose 10 mg/kg, time infinity, route oral; settings: in vivo
[7] = Tmax in beagle dog at 10 mg/kg, po by mass spectrometry; assay type: ADME, organism-based, Canis lupus familiaris; settings: in vivo
Cynomolgus monkey [8] = assay: Reduction in serum LH level in castrated male cynomolgus monkey at 30 mg/kg, po administered as single dose after 24 hrs by RIA method; assay type: functional; settings: Macaca fascicularis
[9] = AUC in castrated male cynomolgus monkey at 30 mg/kg, po administered as single dose; assay type: ADME, organism-based, Macaca fascicularis; settings: in vivo
[10] = Oral bioavailability in castrated cynomolgus monkey at 10 mg/kg by mass spectrometry; assay type: ADME, organism-based, Macaca fascicularis; settings: male, in vivo
[11] = AUC (infinity) in castrated cynomolgus monkey at 10 mg/kg, po by mass spectrometry; assay type: ADME, organism-based, Macaca fascicularis; parameters: dose 10 mg/kg, route oral, time infinity; settings: male, in vivo
[12] = Oral bioavailability in Sprague-Dawley rat at 10 mg/kg by mass spectrometry; assay type: ADME, organism-based; settings: in vivo
[13] = Half life in castrated cynomolgus monkey at 10 mg/kg, po by mass spectrometry; assay type: ADME, organism-based, Macaca fascicularis; settings: male, in vivo
[14] = Half life in beagle dog at 10 mg/kg, po by mass spectrometry; assay type: ADME, organism-based, Canis lupus familiaris; settings: in vivo
Cynomolgus monkey [15] = assay: Reduction in serum LH level in castrated male cynomolgus monkey at 30 mg/kg, po administered as single dose after 12 hrs by RIA method; assay type: functional; settings: Macaca fascicularis
[16] = Tmax in Sprague-Dawley rat at 10 mg/kg, po by mass spectrometry; assay type: ADME, organism-based; settings: in vivo
[17] = AUC (infinity) in Sprague-Dawley rat at 10 mg/kg, po by mass spectrometry; assay type: ADME, organism-based; parameters: dose 10 mg/kg, route oral, time infinity; settings: in vivo
[18] = Cmax in castrated cynomolgus monkey at 10 mg/kg, po by mass spectrometry; assay type: ADME, organism-based, Macaca fascicularis; parameters: dose 10 mg/kg, route oral; settings: male, in vivo
[19] = Cmax in Sprague-Dawley rat at 10 mg/kg, po by mass spectrometry; assay type: ADME, organism-based; parameters: dose 10 mg/kg, route oral; settings: in vivo
[20] = Cmax in beagle dog at 10 mg/kg, po by mass spectrometry; assay type: ADME, organism-based, Canis lupus familiaris; parameters: dose 10 mg/kg, route oral; settings: in vivo
[21] = Oral bioavailability in beagle dog at 10 mg/kg by mass spectrometry; assay type: ADME, organism-based, Canis lupus familiaris; settings: in vivo
[22] = Half life in Sprague-Dawley rat at 10 mg/kg, po by mass spectrometry; assay type: ADME, organism-based; settings: in vivo
[23] = Tmax in castrated cynomolgus monkey at 10 mg/kg, po by mass spectrometry; assay type: ADME, organism-based, Macaca fascicularis; settings: male, in vivo
[24] = Cmax in castrated male cynomolgus monkey at 30 mg/kg, po administered as single dose; assay type: ADME, organism-based, Macaca fascicularis; parameters: dose 30 mg/kg, route oral; settings: in vivo
[25] = target: T2, Gonadotropin-releasing hormone receptor (Rattus norvegicus, UniProt P30969); assay: Antagonist activity against rat GnRH receptor expressed in HEK293 cells co-transfected with pGL4-NFAT promoter AP1-luc assessed as inhibition of 1 nM GnRH-induced NFAT activation pre-incubated for 1 hr before GnRH stimulation and measured after 6 hrs by luciferase reporter gene assay; assay type: cell-based
T2 sequence (P30969 whole entry): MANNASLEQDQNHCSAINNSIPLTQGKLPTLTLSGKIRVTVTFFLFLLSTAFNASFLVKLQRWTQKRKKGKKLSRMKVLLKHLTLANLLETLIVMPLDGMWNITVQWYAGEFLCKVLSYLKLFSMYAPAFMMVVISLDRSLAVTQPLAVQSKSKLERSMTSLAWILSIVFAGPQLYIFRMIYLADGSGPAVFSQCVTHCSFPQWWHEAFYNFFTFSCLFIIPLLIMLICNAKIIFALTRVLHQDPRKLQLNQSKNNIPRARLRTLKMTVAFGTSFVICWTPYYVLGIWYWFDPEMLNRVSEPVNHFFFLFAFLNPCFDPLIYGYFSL

[26] = target: T1, Gonadotropin-releasing hormone receptor; assay: Antagonist activity against human GnRH receptor expressed in HEK293 cells co-transfected with pGL4-NFAT promoter AP1-luc assessed as inhibition of 1 nM GnRH-induced NFAT activation pre-incubated for 1 hr before GnRH stimulation and measured after 6 hrs by luciferase reporter gene assay; assay type: cell-based
[27] = target: T3, Gonadotropin-releasing hormone receptor (Macaca mulatta, UniProt Q8SPZ1); assay: Displacement of [125I]D-Trp6-LHRH from monkey GnRH receptor expressed in HEK293 cell membranes incubated for 1 hr by competitive binding assay
T3 sequence (Q8SPZ1 whole entry): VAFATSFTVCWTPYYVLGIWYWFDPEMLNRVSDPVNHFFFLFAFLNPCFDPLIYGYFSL

[28] = target: T3, Gonadotropin-releasing hormone receptor; assay: Antagonist activity against monkey GnRH receptor expressed in HEK293 cells co-transfected with pGL4-NFAT promoter AP1-luc assessed as inhibition of 10 nM GnRH-induced NFAT activation pre-incubated for 1 hr before GnRH stimulation and measured after 6 hrs by luciferase reporter gene assay; assay type: cell-based
[29] = target: T1, Gonadotropin-releasing hormone receptor; assay: Antagonist activity against human GnRH receptor expressed in HEK293 cells assessed as reduction in ERK1/2 phosphorylation pre-incubated for 5 mins before LHRH stimulation for 5 mins by chemiluminescence based assay; assay type: cell-based
[30] = target: T2, Gonadotropin-releasing hormone receptor; assay: Displacement of [125I]D-Trp6-LHRH from rat GnRH receptor expressed in HEK293 cell membranes incubated for 1 hr by competitive binding assay
[31] = target: T1, Gonadotropin-releasing hormone receptor; assay: Antagonist activity against human GnRH receptor expressed in […] assessed as inhibition of LHRH-induced calcium flux by FLIPR assay; assay type: functional, cell-based

| Structure (SMILES) | IC50 [4] [nM] | IC50 [5] [nM] | inhibition at 0.5 h, 10 µM (CYP3A4) [%] | also measured |
| --- | --- | --- | --- | --- |
| Cc1c(N2CCN(Cc3ccc(C(F)(F)F)o3)CC2)c(=O)n(C[C@H](NCCCC(=O)O)c2ccccc2)c(=O)n1Cc1c(F)cccc1C(F)(F)F [listing 1 of 2 here] |  |  |  | Ratio IC50 [1]: 2; Ratio IC50 [2]: 44; inhibition (Cynomolgus monkey [3]): Active |
| Cc1c(N2CCN(Cc3ccc(C(F)(F)F)o3)CC2)c(=O)n(C[C@H](NCCCC(=O)O)c2ccccc2)c(=O)n1Cc1c(F)cccc1C(F)(F)F.Cl |  |  |  | AUC(0-inf) [6]: 9600 ng·h/mL; Tmax [7]: 1.3 h; inhibition in vivo at 30 mg/kg (Cynomolgus monkey [8]): 76%; AUC [9]: 37000 ng·h/mL; bioavailability [10]: 13.2%; AUC(0-inf) [11]: 1300 ng·h/mL; bioavailability [12]: 15.6%; half-life [13]: 3.5 h; half-life [14]: 1.7 h; inhibition in vivo at 30 mg/kg (Cynomolgus monkey [15]): 84%; Tmax [16]: 1.6 h; AUC(0-inf) [17]: 1500 ng·h/mL; Cmax [18]: 300 ng/mL; Cmax [19]: 500 ng/mL; Cmax [20]: 2700 ng/mL; bioavailability [21]: 52.6%; half-life [22]: 1.9 h; Tmax [23]: 1.7 h; Cmax [24]: 5500 ng/mL |
| Cc1c(N2CCN(Cc3cccc([N+](=O)[O-])c3)CC2)c(=O)n(C[C@H](N)c2ccccc2OCCCC(=O)O)c(=O)n1Cc1c(F)cccc1C(F)(F)F | 0.14 | 26.9 | 57 |  |
| Cc1c(N2CCN(Cc3cccc(C(=O)NCC(=O)O)c3)CC2)c(=O)n(C[C@H](N)c2ccccc2)c(=O)n1Cc1c(F)cccc1C(F)(F)F | > 10 | > 300 | 74 |  |
| Cc1c(N2CCN(Cc3cccc(C(F)(F)F)c3)CC2)c(=O)n(C[C@H](NCCCC(=O)O)c2ccccc2)c(=O)n1Cc1c(F)cccc1C(F)(F)F | 0.68 | 49.5 | 22 |  |
| CCOP(=O)(O)CCCN[C@@H](Cn1c(=O)c(N2CCN(Cc3ccc(C(F)(F)F)o3)CC2)c(C)n(Cc2c(F)cccc2C(F)(F)F)c1=O)c1ccccc1 | 1.8 | 184 | 45 |  |
| Cc1c(N2CCN(Cc3cccc([N+](=O)[O-])c3)CC2)c(=O)n(C[C@H](N)c2ccccc2)c(=O)n1Cc1c(F)cccc1C(F)(F)F | 0.45 | 102 to 155 | 89 |  |
| Cc1c(N2CCN(Cc3cccc(S(C)(=O)=O)c3)CC2)c(=O)n(C[C@H](N)c2ccccc2)c(=O)n1Cc1c(F)cccc1C(F)(F)F | 0.38 | 214 |  |  |
| Cc1c(N2CCN(Cc3ccc(C(F)(F)F)o3)CC2)c(=O)n(C[C@H](NCCCP(=O)(O)O)c2ccccc2)c(=O)n1Cc1c(F)cccc1C(F)(F)F | 1.2 | 411 | 16 |  |
| Cc1c(N2CCN(Cc3ccc(C#N)o3)CC2)c(=O)n(C[C@H](N)c2ccccc2)c(=O)n1Cc1c(F)cccc1C(F)(F)F | 0.17 | 103 |  |  |
| Cc1c(N2CCN(Cc3ccc(C(F)(F)F)o3)CC2)c(=O)n(C[C@H](N)c2ccccc2)c(=O)n1Cc1c(F)cccc1C(F)(F)F | 0.95 | 12.6 | 96 |  |

Continued, in another order:

| IC50 [4] [nM] | IC50 [5] [nM] | inhibition at 0.5 h, 10 µM (CYP3A4) [%] | Structure (SMILES) | also measured |
| --- | --- | --- | --- | --- |
| 0.23 | 27.7 | 30 | Cc1c(N2CCN(Cc3cccc([N+](=O)[O-])c3)CC2)c(=O)n(C[C@H](N)c2ccccc2OCC(=O)O)c(=O)n1Cc1c(F)cccc1C(F)(F)F |  |
| 1.42 | 60 | 17 | Cc1c(N2CCN(Cc3cccc([N+](=O)[O-])c3)CC2)c(=O)n(C[C@H](NCCCC(=O)O)c2ccccc2)c(=O)n1Cc1c(F)cccc1C(F)(F)F |  |
| 0.33 to 0.52 | 27.9 | 96 | Cc1c(N2CCN(Cc3cccc(C(F)(F)F)c3)CC2)c(=O)n(C[C@H](N)c2ccccc2)c(=O)n1Cc1c(F)cccc1C(F)(F)F |  |
| 0.17 | 89.3 | 97 | Cc1c(N2CCN(Cc3cccc([N+](=O)[O-])c3)CC2)c(=O)n(C[C@H](N)c2ccccc2O)c(=O)n1Cc1c(F)cccc1C(F)(F)F |  |
| 1.2 | 146 | 72 | Cc1c(N2CCN(Cc3cccc(C(=O)NCCC(=O)O)c3)CC2)c(=O)n(C[C@H](N)c2ccccc2)c(=O)n1Cc1c(F)cccc1C(F)(F)F |  |
| 1.95 | 86.5 | 93 | Cc1c(N2CCN(Cc3cccc(C(N)=O)c3)CC2)c(=O)n(C[C@H](N)c2ccccc2)c(=O)n1Cc1c(F)cccc1C(F)(F)F |  |
| 0.44 to 0.46 | 13 | 21 | Cc1c(N2CCN(Cc3ccc(C(F)(F)F)o3)CC2)c(=O)n(C[C@H](NCCCC(=O)O)c2ccccc2)c(=O)n1Cc1c(F)cccc1C(F)(F)F [listing 2 of 2 here] | IC50 [25]: 279 nM; IC50 [26]: 6.32 nM; IC50 [27]: 3.7 nM; IC50 [28]: 13.2 nM; IC50 [29]: 2.9 nM; IC50 [30]: 520 nM; IC50 [31]: 0.76 nM |
| 1.1 | 376 | 66 | Cc1c(N2CCN(Cc3cccc(C(=O)NCCCC(=O)O)c3)CC2)c(=O)n(C[C@H](N)c2ccccc2)c(=O)n1Cc1c(F)cccc1C(F)(F)F |  |
| 1.1 | 122 | 45 | Cc1c(N2CCN(Cc3ccc(C(F)(F)F)o3)CC2)c(=O)n(C[C@H](NCCCS(=O)(=O)O)c2ccccc2)c(=O)n1Cc1c(F)cccc1C(F)(F)F |  |
| 5.11 | 543 |  | Cc1ncccc1CN1CCN(c2c(C)n(Cc3c(F)cccc3C(F)(F)F)c(=O)n(C[C@H](N)c3ccccc3)c2=O)CC1 |  |
